The values that follow come from EP1009397B1, “USE OF N,N-BIS (PHENYLCARBAMOYLMETHYL) DIMETHYLAMMONIUM CHLORIDE AND DERIVATIVES IN THE TREATMENT OF CHRONIC PAIN” (UCB Farchim S.A., priority 1997, dated 1999).

For data set [1], the system named is CD-I mouse. Kind of data set: Formalin Paw Test. It counts as in vivo, mice. As to conditions: for ED50: subcutaneous. The protocol: In this test a hind paw (footpad) of conscious mice was injected with a formalin solution, which produced a painful stimulus, to which the mice reacted by licking the foot. Pretreatment of the animal with an effective analgesia reduced the pain and consequently the licking behavior. […] At t=0 minutes, either saline, […], 20, 40, 80 or 160 mg/kg was injected subcutaneously under the dorsal skin of the neck of a CD-I mouse (n=8 for each dose of Compound I) that weighed in the range of 20-45 grams. At t=60 minutes, formalin (2 different amounts were used in separate studies) was injected into the right hind paw (footpad) of each mouse, and the animal was released into the observation chamber (24-26°C). The mice were videotaped in groups of four for 60 minutes. The observations were made from viewing the videotapes activity, and the investigators looked for the following pain behavioral traits: licking of the right hind paw; lifting and licking of the right hind paw; resting/sleeping/being still; exploring or grooming (F.V. Abbott, K.B.J. Franklin and R.F. Wesbrook, Pain, 1995, 60 191-202). The corresponding behavioral traits were checked and recorded for each animal every two minutes for sixty minutes after the formalin injection.

The test system of data set [2] is guinea pig. As to conditions: intravenous administration; cited from earlier work.
The nature of data set [3]: Acute toxicity in rats. Conditions: rat, in vivo, ip; intraperitoneal administration to rats; read-out: survival dose values (LD50).
Data set [4] in a line: Acute toxicity in rabbits. Conditions: rabbit, in vivo; intravenous administration to rabbits; read-out: survival dose values (LD50). The protocol: The experiments were carried out on animals that were administered intravenously or orally escalating doses of the test compounds.
A short description of data set [5]: Acute toxicity in mice. Conditions: mouse, in vivo, read-out: survival dose values (LD50).
Data set [6] deals with CD-1 mice. Kind of data set: Formalin Tail Test. Type of data set: in vivo. The protocol:
The protocol of this test is similar to that for the Paw Test described above, except that the injection of formalin was in the dorsal mid-tail region of the mouse instead of the hind paw. Behaviors such as licking of the tail (with and without lifting the tail), grooming, exploring and resting were recorded every two minutes for sixty minutes after injection of formalin (30 µl of 2.5% formalin)
Two modes of administration (subcutaneous and oral) of Compound I were studied. […] The ED50 was determined to be 40 mg/kg.
In the oral administration study, CD-1 mice weighing 15-30 grams each (n=8 or 4 for each dose of Compound I) were orally administered with either gum arabic (vehicle), 300 mg/kg or 700 mg/kg Compound I, 60 minutes prior to formalin (2.5%, 30 µ1)_injection. Behaviors such as licking of the tail (with and without lifting the tail), grooming, exploring and resting were recorded every two minutes for sixty minutes after injection of formalin (30 µl of 2.5% formalin). At an oral dose of 700mg/kg, Compound I reduced licking by 62%, while at 300 mg/kg, a reduction of 50% was determined

Data set [7] deals with human forearm. Kind of data set: Intradermal injections into the human forearm. Type of data set: in vivo. As to conditions: intradermal injections of small volumes of solutions.
For data set [8], the system named is rabbit. Conditions: intravenous administration; cited from earlier work.
Data set [9] concerns mouse tail. In words: Regional analgesic effects in mice (tourniquet at tail base, tail vein injection, tail-flick). It counts as in vivo. As to conditions: injection into the tail vein, tourniquet around the base of the tail. The source says: In these experiments a tourniquet is placed around the base of a mouse tail so as to occlude blood flow to and from the tail.

SMILES strings stand for the structures. A value given as a limit tells only on which side of the number the result lay.

With `C[N+](C)(CC(=O)Nc1ccccc1)CC(=O)Nc1ccccc1.[Cl-]` [Compound I, N, N-Bis (phenylcarbamoylmethyl) dimethylammonium chloride], the 50% effective dose (ED50) (usually the dose at which the effect has come halfway, by size or by number of responders) in data set [1] (Mus musculus, sc, 20 µl of 2.0% formalin injected) was 50 mg/kg; in data set [1] (Mus musculus, sc, 30 µl of 2.5% formalin injected), 145 mg/kg; in data set [6] (Mus musculus, sc, subcutaneous administration, 30 µl of 2.5% formalin), 40 mg/kg. Also, the inhibition – broadly, the relative decrease from the control value, in per cent – at 160 mg/kg in [1] (Mus musculus, sc, 20 µl of 2.0% formalin injected, at 160 mg/kg subcutaneous) was greater than 80%. Moreover, in data set [1] (at the doses of the formalin paw test (up to 160 mg/kg subcutaneous)), the “alteration of animal behavior” value is “no evident alteration of animal behavior other than the reduced reaction to the noxious stimulus”. Moreover, the “inhibition of the delayed phase of licking” value in [1] (subcutaneous under the dorsal skin of the neck, 60 minutes before formalin into right hind paw) is listed as “dose related inhibition of the delayed phase of licking”; in [6] (subcutaneous administration under the dorsal skin of the neck, 30 µl of 2.5% formalin in dorsal mid-tail region) it was “dose related inhibition of the delayed phase of licking”. Moreover, the figures for the “Toxicity (LD100)” value in [2] and in [8] were 36 mg/kg and 50 mg/kg, respectively. In addition, the LD50 (usually the dose at which mortality reaches 50%) in data set [3] amounted to 150 mg/kg; in data set [4], 17 mg/kg; in [5] (ip, intraperitoneal administration to mice), 125 mg/kg; in data set [5] (sc, subcutaneous injection to mice), 264 mg/kg; in [5] (oral administration to mice), 117 mg/kg. Moreover, the reduction of licking in data set [6] (oral 300 mg/kg, 60 minutes prior to formalin (2.5%, 30 µ1)) was found to be 50%. The reduced licking in data set [6] (oral dose of 700mg/kg, 60 minutes prior to formalin (2.5%, 30 µ1)) is on record as 62%. The “effect on sensation of heat or touch” value in data set [7] was “little or no effect on sensation of heat or touch”. Further, the “inhibition of pain induced by pin-prick” value in [7] was “long-lasting inhibition of pain induced by pin-prick”. Moreover, in data set [9], the “block of tail-flick in response to heat” value is given as “not to heat”. In addition, the “block of tail-flick in response to pin-prick” value in data set [9] was “rapidly produced block of tail-flick in response to pin-prick”.

With `CCN(CC)CC(=O)Nc1c(C)cccc1C` [lidocaine, reference compound], in data set [7], the “effect on sensation of heat or touch” value is “inhibited equally sensation of pain, heat and touch”; the “inhibition of pain induced by pin-prick” value is “inhibited equally sensation of pain, heat and touch”. Moreover, in data set [9], the “block of tail-flick in response to heat” value is “inhibits responses both to pin-prick and to heat”; the “block of tail-flick in response to pin-prick” value was “inhibits responses both to pin-prick and to heat”.

As for `CCCCN1CCCCC1C(=O)Nc1c(C)cccc1C` (centres unmarked) [bupivacaine], in [7], the “effect on sensation of heat or touch” value was “inhibited equally sensation of pain, heat and touch”; the “inhibition of pain induced by pin-prick” value is “inhibited equally sensation of pain, heat and touch”.
